Data set [1] concerns the target T1, AT1aR (Rattus norvegicus, UniProt P25095).
T1 construct: expressed in transfected cells; host or cells: HEK293T, transient, crude membranes
T1 sequence (P25095 1-359): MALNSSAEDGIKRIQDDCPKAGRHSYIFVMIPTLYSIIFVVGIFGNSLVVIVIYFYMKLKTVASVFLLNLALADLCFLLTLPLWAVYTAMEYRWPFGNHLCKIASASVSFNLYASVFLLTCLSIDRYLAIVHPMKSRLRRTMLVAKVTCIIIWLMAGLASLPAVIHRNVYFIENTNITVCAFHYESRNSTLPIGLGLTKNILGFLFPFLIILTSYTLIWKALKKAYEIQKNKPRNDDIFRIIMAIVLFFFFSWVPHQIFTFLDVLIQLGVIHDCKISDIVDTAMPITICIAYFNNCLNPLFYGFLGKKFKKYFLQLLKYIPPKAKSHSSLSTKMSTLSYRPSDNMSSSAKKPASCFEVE
The data set is described as follows: Radioligand binding assays (saturation and competition), HEK293T membranes. To be noted: for Ki: competition vs 2 nM [125I]-AII, 2 hours on ice, Cheng and Prusoff, receptor printed AT1R. As to the method: (§1) Cell culture and transient transfection. HEK293T cells were maintained at 37° C. in Dulbecco's modified Eagle's medium (DMEM) supplemented with 10% (v/v) fetal bovine serum (FBS), 2 mM glutamine, 100 U/ml penicillin, and 100 μg/ml streptomycin. Cells were seeded into 10 cm dish and 24 hours later were transfected with either AT1aR (pcDNA3.1) or AT2R (pcDNAI/Amp) using GeneJuice transfection reagent according to the manufacturer's instructions. Cells were harvested 48 hours after transfection. A pellet of transfected HEK293T cells (2×10^6 cells) was resuspended in ice-cold 0.5 ml binding buffer (50 mM Tris-HCl pH 7.4, 100 mM NaCl, 10 mM MgCl2, 1 mM EDTA, 0.2% BSA and 0.025% Bacitracin) containing protease inhibitors (Complete™, Roche). The cells were transferred to a 1.5 ml microcentrifuge tube and subjected to two cycles of freeze-thawing. The lysed cells were sheared by passaging seven times through a 26-gauge needle and the crude membranes were pelleted by ultracentrifugation (60 min, 120,000×g, 4° C.). The crude membranes were then resuspended in a final volume of 0.2 ml ice-cold binding buffer containing protease inhibitors corresponding to a protein concentration 3.3 μg/μl as determined by the amido black protein assay^45.
(§2) Radioligand binding assays. […] Non-specific binding was determined in presence of 6 μM cold AII. […] Samples were incubated for 2 hours at 4° C. Receptor-bound and free radioligand were separated by filtration through Whatman GF/B filters, pre-soaked with 0.3% polyethylamine. The filters were washed with 5 ml of ice-cold binding buffer and transferred to scintillation tubes. Radioactivity was counted on a Beckman LS6000 liquid scintillation counter and data were analyzed by non-linear regression using Prism software (GraphPad).

The target in another data set is T2, AT2R-F272A (Homo sapiens, UniProt P50052, F272A).
T2 construct: expressed in transfected cells; host or cells: HEK293T, transient, crude membranes
T2 sequence (P50052 1-363 F272A): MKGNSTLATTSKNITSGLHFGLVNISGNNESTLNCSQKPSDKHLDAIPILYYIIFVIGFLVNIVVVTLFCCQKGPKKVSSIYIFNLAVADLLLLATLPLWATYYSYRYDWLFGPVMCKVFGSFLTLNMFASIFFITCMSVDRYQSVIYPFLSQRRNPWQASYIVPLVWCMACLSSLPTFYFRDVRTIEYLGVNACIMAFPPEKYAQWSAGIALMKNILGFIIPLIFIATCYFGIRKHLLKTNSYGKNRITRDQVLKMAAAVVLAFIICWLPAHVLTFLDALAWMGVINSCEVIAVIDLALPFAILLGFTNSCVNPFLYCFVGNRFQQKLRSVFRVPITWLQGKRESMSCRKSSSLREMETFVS
Kind of data set: Radioligand binding assays, AT2R mutant. The settings on record: competition vs 2 nM [125I]-AII, 2 hours on ice, Cheng and Prusoff. As to the method: (§3) Mutagenesis. AT2R mutants were generated as described elsewhere^44.
as §1, §2

For the next data set, the target named is T3, AT2R-F272H (Homo sapiens, UniProt P50052, F272H).
T3 construct: expressed in transfected cells; host or cells: HEK293T, transient, crude membranes
T3 sequence (P50052 1-363 F272H): T2 sequence (P50052 1-363 F272A) with A272H
The data set is described as follows: Radioligand binding assays, AT2R mutant. The settings on record: competition vs 2 nM [125I]-AII, 2 hours on ice, Cheng and Prusoff. As to the method: as §3, §1, §2

For another data set, the target named is T4, AT2R-Y189N (Homo sapiens, UniProt P50052, Y189N).
T4 construct: expressed in transfected cells; host or cells: HEK293T, transient, crude membranes
T4 sequence (P50052 1-363 Y189N): T2 sequence (P50052 1-363 F272A) with Y189N, A272F
The data set is described as follows: Radioligand binding assays, AT2R mutant. To be noted: competition vs 2 nM [125I]-AII, 2 hours on ice, Cheng and Prusoff. How it is done:
as §3, §1, §2

A further data set deals with T5, AT2R-Y189A (Homo sapiens, UniProt P50052, Y189A).
T5 construct: expressed in transfected cells; host or cells: HEK293T, transient, crude membranes
T5 sequence (P50052 1-363 Y189A): T2 sequence (P50052 1-363 F272A) with Y189A, A272F
Kind of data set: Radioligand binding assays, AT2R mutant. The settings on record: competition vs 2 nM [125I]-AII, 2 hours on ice, Cheng and Prusoff. As to the method:
as §3, §1, §2

In the next data set the target is AT2R wild type. The data set is described as follows: Radioligand binding assays (saturation and competition), HEK293T membranes. How it is done:
as §1, §2

Data set [2] can be described thus: cis/trans isomer population in aqueous solution by NMR. Type of data set: physicochemical. To be noted: cis amide bond at residue 6-Pro7, aqueous solution. An excerpt: Peptide synthesis and sample preparation. The synthesis of the following peptides: AII (D^1-R^2—V^3—Y^4—I^5—H^6—P^7—F^8); [Y]^6-AII (D^1-R^2—V^3—Y^4—I^5—Y^6—P^7—F^8); [4-OPO3H2—F]^6-AII, (D^1-R^2—V^3—Y^4—I^5-(4-OPO3H2—F)^6—P^7—F^8), [F]^6-AII, (D^1-R^2—V^3—Y^4—I^5—F^6—P^7—F^8) and [4-NO2—F]^6-AII, (D^1-R^2—V^3—Y^4—I^5-(4-NO2—F)^6—P^7—F^8) was achieved using Fmoc/tBu methodology. 2-Chlorotrityl chloride resin and N^α-Fmoc (9-fluorenylmethyloxycarbonyl) amino acids were used for the synthesis. Peptide purity was assessed by analytical HPLC (Nucleosil-120 C18, reversed phase, 250×4.0 mm), mass spectrometry (FABMS, ESIMS) and amino acid analysis. The samples were prepared for NMR spectroscopy by dissolving the peptide in 0.01 M KPi buffer (pH=4), containing 0.02 M KCl. 2,2-dimethyl-2-sila-pentane sulfonate (DSS) was added to a concentration of 1 mM as an internal chemical shift reference. Peptide concentration was commonly 4 mM in 90% ^1H2O/10% ^2H2O. Trace amounts of NaN3 were added as a preservative.
Inter-proton distances for AII were derived by measuring cross-peak intensities in the NOESY spectra. Intensities were calibrated to give a set of distance constrains using the NMRVIEW software package. NOEs cross peaks were separated into three distance categories according to their intensity. […]

Data set [3] relates to AT1aR. To be noted: relative to AII; cited from earlier work.
The target of a further data set is T6, AT2R (Homo sapiens, UniProt P50052).
T6 sequence (P50052 1-363): T2 sequence (P50052 1-363 F272A) with A272F
The settings on record: relative to AII; cited from earlier work.

Positions count from the first letter of the chain named. Where a SMILES comes first, the peptide text is derived from it. Where no end group is shown, it is not given here.

Usually Ki stands for a measure of affinity in units of concentration, obtained from inhibition or displacement. Low readings indicate tighter binding, high ones weaker binding. `CC[C@H](C)[C@H](NC(=O)[C@H](Cc1ccc(O)cc1)NC(=O)[C@@H](NC(=O)[C@H](CCCNC(=N)N)NC(=O)[C@@H](N)CC(=O)O)C(C)C)C(=O)N[C@@H](Cc1ccc(OP(=O)(O)O)cc1)C(=O)N1CCC[C@H]1C(=O)N[C@@H](Cc1ccccc1)C(=O)O` [[4-OPO3H2—F]^6-AII, D^1-R^2—V^3—Y^4—I^5-(4-OPO3H2—F)^6—P^7—F^8] (HELM PEPTIDE1{D.R.V.Y.I.[O=C([C@H](Cc1ccc(OP(=O)(O)O)cc1)N[*:1])[*:2]].P.F}$$$$V2.0): the Ki on AT1aR [1] is > 2500 nM; at AT2R-F272A, 250 nM; on AT2R-F272H it was 21 nM; on AT2R-Y189N, 200 nM; on AT2R-Y189A, 51 nM.

The Kd is the equilibrium constant for the complex coming apart. Compound `CC[C@H](C)[C@H](NC(=O)[C@H](Cc1ccc(O)cc1)NC(=O)[C@@H](NC(=O)[C@H](CCCNC(=N)N)NC(=O)[C@@H](N)CC(=O)O)C(C)C)C(=O)N[C@@H](Cc1c[nH]cn1)C(=O)N1CCC[C@H]1C(=O)N[C@@H](Cc1ccccc1)C(=O)O` [[^125I]-AII, reference compound] showed a Kd at AT2R wild type (saturation assay, 2 hours on ice) of 2.3 ± 0.3 nM.

On to DRVYIYPF [[Y]^6-AII], for which the inhibitory constant (Ki) on AT1aR [1] was > 2500 nM; at AT2R-F272A, 16 nM; at AT2R-F272H, 16 nM; at AT2R-Y189N, 10 nM; on AT2R-Y189A, 12 nM.

“D^1-R^2—V^3—Y^4—I^5-(4-NO2—F)^6—P^7—F^8 [[4-NO2—F]^6-AII]”: the “binding / affinity for AT1aR (in words)” value at AT1aR [1] is on record as “high affinity (nM)”. Moreover, the “lower affinity for AT2R in comparison to [Y]^6-AII” value in the data set on AT2R wild type (unpublished data) is 300 times. For the same compound, the “%cis” value in [2] is ~5%.

Regarding “D^1-R^2—V^3—Y^4—I^5—F^6—P^7—F^8 (DRVYIFPF; Angiotensin-2; UniProt P01019 25-32, looked up, variant H6F) [[F]^6-AII, AII analogue with phenylalanine at position 6]”, in the data set on AT2R wild type (unpublished data), the “affinity for AT1aR compared with AT2R (in words)” value was “same affinity for both AT1aR and AT2R”; the “lower affinity for AT2R in comparison to [Y]^6-AII” value is “more than 50 times”. The “%cis” value in [2] is reported as ~20%.

Take “Pro7Gly mutation in AII: literature AII analogue with Pro7 replaced by Gly (ref 16) (DRVYIHGF; Angiotensin-2; UniProt P01019 25-32, looked up, variant P7G)”: the “lower affinity for AT1aR” value in the data set with AT1aR [3] is 150 times. Moreover, the “affinity for the AT2R (in words)” value in the data set with AT2R is reported as “almost retained its affinity”.

These data come from patent US20140303082A1, “SELECTIVE GPCR LIGANDS” (Medical Research Council, priority 2011, published 2014).
